How the values were obtained:
AML with FLT3 mutation = conditions: added to cytarabine and daunorubicin induction and cytarabine consolidation; cited from earlier work
MV-4-11 cells = experiment: Western blot of FLT3-mediated signaling and Bcl-2 family proteins; type: cell-based; conditions: 6 hours
Protocol: B. Western blot analysis of FLT3-mediated signaling pathways and expression of Bcl-2 family proteins in MV-4-11 cells treated for 6 hours with Midostaurin. S63845 alone or in combination. De-phosphorylation of FLT3-ITD lead to inactivation of STAT5 and MAPK and was accompanied by significant downregulation of MAPK-mediated phosphorylation of Mcl-1 at Thr163, site required for Mcl-1 stability. Consequently, Midostaurin reduced level of Mcl-1.
Cells (3×10^6/well) were seeded in 6-well plates in 5 mL of complete RPMI medium and exposed to Midostaurin and S63845 given alone or in combination. Control cells received DMSO. Cells were incubated for 6 hours and then collected, washed twice in PBS and lysed in RIPA buffer (ThermoFisher Scientific) supplemented with 1× Protease and Phosphatase Inhibitor cocktail (ThermoFisher Scientific). Lysates were kept on ice for 20 minutes with vortexing every 5 minutes, then briefly sonicated and centrifuged at 13500 rpm for 15 minutes. Supernatant was collected and protein content was measured using […]. Cell lysates (30-50 μg protein per well) were resolved by electrophoresis on 4%-20% gradient precast sodium dodecyl sulfate-polyacrylamide gels (Bio-Rad, Hercules, Calif.) and transferred to PVDF membrane (Bio-Rad). […]

solid tumors = conditions: single agent, Phase I trial; cited from earlier work
MV4-11 FLT3-ITD = experiment: Dynamic BH3 profiling (cytochrome C release); type: cell-based; conditions: 4 hours after treatment with Midostaurin (100 nM)
Protocol: Cells were subjected to BH3 profiling assay 4 hours after treatment with Midostaurin (100 nM). Increase in cytochrome C release is a quantitative measure of mitochondrial apoptosis initiation.
BH3 profiling was performed in black 384-well plates according to A. Letai method (https://letailab.dana-farber.org/bh3-profiling.html). Briefly, cells ([…]) were seeded in 6-well plates in 5 mL of complete RPMI medium and exposed to Midostaurin and S63845 given alone or in combination. Control cells received DMSO. Cells were incubated for 6 hours, collected, washed twice in PBS and resuspended in MEB buffer (150 mM mannitol, 10 mM HEPES-KOH pH 7.5, 150 mM KCl, 1 mM EGTA, 1 mM EDTA, 0.1% BSA, 5 mM succinate) to a final density 1×10^6/mL. Cells (15 μL) were added to 384-well plate containing containing peptides % BH3 mimetics and 15 μL of 0.002% digitonin in MEB buffer. Cells were incubated for 1 hour in 25° C. and subsequently fixed in 10 μL of 4% formaldehyde in PBS for 10 minutes. To terminate the fixation, 10 μL of N2 buffer (1.7M Tris, 1.25M Glycine pH 9.1) was added and cells were left at room temperature for 5 minutes. […] Cytochrome C release was measured by flow cytometry.

Molm13 = experiment: Caspase-Glo 3/7 caspase3.7 activity, dose matrix, Molm13; type: cell-based; conditions: single agent, Molm13 (FLT3-ITD), 6 hours treatment, highest dose 3 uM
Protocol: (§1) Both compounds were dissolved in 100% DMSO (Sigma, Catalog number D2650) at concentrations of 10 mM and stored at −20° C. until use.
(§2) The cell line Molm13 used in this study was purchased from Leibniz-Institut DSMZ (ACC 554) and MV-4-11 from American Type Cell Collection (ATCC® CRL-9591). The cell lines were cultured at 37° C. in a 5% CO2 incubator, Molm13 in RPMI (Lonza, 12-702F) and MV-4-11 in IMDM (Hyclone, SH30228.01) media complemented with 10% fetal bovine serum (Seradigm, 1500-500). The cells were passaged twice a week and the medium was changed every 2 to 3 days.
(§3) Caspase3.7 activity was measured by the Caspase-Glo® 3/7 kit from Promega (G8092), 9000 cells/well were dispensed into clear-bottom 384-well black plates (Greiner, #781091) in triplicates with 30 μl/well growth media. […] Then 30 ul/well of the Caspase-Glo® 3/7 reagents was added to each well at the end and luminescence was recorded on an Envision plate reader (Perkin Elmer). Measured Luminescence is proportional to the amount of caspase activity present. […]
(§4) The Compound A and Compound B “dose matrix”, consisted of the following: both compounds were subjected to a 11 dose 1:3 serial dilution with the highest dose of 3 uM and down to no-compound control. […] The percent caspase3.7 activity was calculated using the following calculation: (I-control/compound treated)×100. […]

MV-4-11 = experiment: Caspase-Glo 3/7 caspase3.7 activity, dose matrix, MV-4-11; type: cell-based; conditions: single agent, MV-4-11 (FLT3-ITD), 6 hours treatment, highest dose 3 uM
Protocol: as §1, §2, §3, §4

| SMILES | overall survival (AML with FLT3 mutation) | level of pro-apoptotic Bim (MV-4-11 cells) | level of Mcl-1 (MV-4-11 cells; MV-4-11 cells) | efficacy (solid tumors) | toxicity (solid tumors) | mitochondrial priming to Mcl-1 inhibitor S63845 and Bim peptide (MV4-11 FLT3-ITD) | induction of caspase activity, maximum increase (Molm13) | induction of caspase activity, maximum increase (MV-4-11) |
| --- | --- | --- | --- | --- | --- | --- | --- | --- |
| CO[C@]1(O)[C@H](N(C)C(=O)c2ccccc2)C[C@H]2O[C@]1(C)n1c3ccccc3c3c4c(c5c6ccccc6n2c5c31)C(=O)NC4 [Compound A, 4′-N-benzoylstaurosporine] | increased overall survival | increased | reduced | limited efficacy | low toxicity | increased | 33% | 24% |
| COc1ccccc1-c1nccc(COc2ccccc2C[C@@H](Oc2ncnc3sc(-c4ccc(F)cc4)c(-c4ccc(OCCN5CCN(C)CC5)c(Cl)c4C)c23)C(=O)O)n1 [Compound B, (2R)-2-{[(5Sa)-5-{3-chloro-2-methyl-4-[2-(4-methylpiperazin-1-yl)ethoxy]phenyl}-6-(4-fluorophenyl)thieno[2,3-d]pyrimidin-4-yl]oxy}-3-(2-{[2-(2-methoxyphenyl)pyrimidin-4-yl]methoxy}phenyl)propanoic acid] | – | – | – | – | – | – | 87% | 89% |

Source: patent US20220016118A1, “COMBINATION OF A MCL-1 INHIBITOR AND MIDOSTAURIN, USES AND PHARMACEUTICAL COMPOSITIONS THEREOF” (LES LABORATOIRES SERVIER, priority 2018, published 2022)
